Source: PubChem BioAssay (NCI)
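Cells were grown in 96-well plates and exposed to each compound for 48 hours at five concentrations; endpoints were interpolated linearly between bracketing concentrations, or set to the highest concentration if not reached. At the TGI there is no net growth.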

Tests used:
Test in all cases: NCI tumour cell line growth inhibition, 48 h
786-0 renal = system: 786-0 renal
A549 NSCLC = system: A549 NSCLC
ACHN renal = system: ACHN renal
CAKI-1 renal = system: CAKI-1 renal
CCRF-CEM leukemia = system: CCRF-CEM leukemia
COLO 205 colon = system: COLO 205 colon
DLD-1 colon = system: DLD-1 colon
HCC-2998 colon = system: HCC-2998 colon
HCT-116 colon = system: HCT-116 colon
HCT-15 colon = system: HCT-15 colon
HL-60(TB) leukemia = system: HL-60(TB) leukemia
HOP-62 NSCLC = system: HOP-62 NSCLC
HOP-92 NSCLC = system: HOP-92 NSCLC
HT29 colon = system: HT29 colon
IGROV1 ovarian = system: IGROV1 ovarian
K-562 leukemia = system: K-562 leukemia
KM12 colon = system: KM12 colon
KM20L2 colon = system: KM20L2 colon
LOX IMVI melanoma = system: LOX IMVI melanoma
LXFL 529 NSCLC = system: LXFL 529 NSCLC
M14 melanoma = system: M14 melanoma
M19-MEL melanoma = system: M19-MEL melanoma
MALME-3M melanoma = system: MALME-3M melanoma
MOLT-4 leukemia = system: MOLT-4 leukemia
NCI-H226 lung = system: NCI-H226 lung
NCI-H23 lung = system: NCI-H23 lung
NCI-H460 lung = system: NCI-H460 lung
NCI-H522 lung = system: NCI-H522 lung
OVCAR-3 ovarian = system: OVCAR-3 ovarian
OVCAR-4 ovarian = system: OVCAR-4 ovarian
OVCAR-5 ovarian = system: OVCAR-5 ovarian
OVCAR-8 ovarian = system: OVCAR-8 ovarian
RPMI-8226 leukemia = system: RPMI-8226 leukemia
RXF 393 renal = system: RXF 393 renal
RXF-631 renal = system: RXF-631 renal
SF-268 CNS = system: SF-268 CNS
SF-295 CNS = system: SF-295 CNS
SF-539 CNS = system: SF-539 CNS
SK-MEL-28 melanoma = system: SK-MEL-28 melanoma
SK-MEL-5 melanoma = system: SK-MEL-5 melanoma
SK-OV-3 ovarian = system: SK-OV-3 ovarian
SN12C renal = system: SN12C renal
SNB-19 CNS = system: SNB-19 CNS
SNB-75 CNS = system: SNB-75 CNS
SNB-78 CNS = system: SNB-78 CNS
SW-620 colon = system: SW-620 colon
TK-10 renal = system: TK-10 renal
U251 CNS = system: U251 CNS
UACC-257 melanoma = system: UACC-257 melanoma
UACC-62 melanoma = system: UACC-62 melanoma
UO-31 renal = system: UO-31 renal
XF 498 CNS = system: XF 498 CNS
DMS 114 small cell lung = system: DMS 114 small cell lung
DMS 273 small cell lung = system: DMS 273 small cell lung
EKVX NSCLC = system: EKVX NSCLC
HOP-18 NSCLC = system: HOP-18 NSCLC
SK-MEL-2 melanoma = system: SK-MEL-2 melanoma
SR leukemia = system: SR leukemia
A498 renal = system: A498 renal

C=C(C)CCOC(c1ccccc1)(c1ccccc1)c1ccccc1 gave a TGI (786-0 renal) greater than 100 µM, a TGI (A549 NSCLC) greater than 100 µM and a TGI (ACHN renal) greater than 100 µM. The TGI (CAKI-1 renal) was greater than 100 µM, the TGI (CCRF-CEM leukemia) was greater than 100 µM and the TGI (COLO 205 colon) was greater than 100 µM. The TGI (DLD-1 colon) was greater than 100 µM, the TGI (HCC-2998 colon) was greater than 100 µM and the TGI (HCT-116 colon) was 76.6 µM. The TGI (HCT-15 colon) was greater than 100 µM, the TGI (HL-60(TB) leukemia) was greater than 100 µM and the TGI (HOP-62 NSCLC) was greater than 100 µM. The TGI (HOP-92 NSCLC) was greater than 100 µM, the TGI (HT29 colon) was 70.6 µM and the TGI (IGROV1 ovarian) was greater than 100 µM. The TGI (K-562 leukemia) was greater than 100 µM, the TGI (KM12 colon) was greater than 100 µM and the TGI (KM20L2 colon) was greater than 100 µM. It also gave a TGI (LOX IMVI melanoma) of 79.2 µM, a TGI (LXFL 529 NSCLC) greater than 100 µM and a TGI (M14 melanoma) greater than 100 µM. The TGI (M19-MEL melanoma) was greater than 100 µM, the TGI (MALME-3M melanoma) was greater than 100 µM and the TGI (MOLT-4 leukemia) was greater than 100 µM. It also gave a TGI (NCI-H226 lung) of 97.8 µM, a TGI (NCI-H23 lung) greater than 100 µM and a TGI (NCI-H460 lung) greater than 100 µM. It also gave a TGI (NCI-H522 lung) of 76.3 µM, a TGI (OVCAR-3 ovarian) greater than 100 µM and a TGI (OVCAR-4 ovarian) greater than 100 µM. The TGI (OVCAR-5 ovarian) was greater than 100 µM, the TGI (OVCAR-8 ovarian) was greater than 100 µM and the TGI (RPMI-8226 leukemia) was greater than 100 µM. It also gave a TGI (RXF 393 renal) of 82.8 µM, a TGI (RXF-631 renal) greater than 100 µM and a TGI (SF-268 CNS) greater than 100 µM. It also gave a TGI (SF-295 CNS) greater than 100 µM, a TGI (SF-539 CNS) greater than 100 µM and a TGI (SK-MEL-28 melanoma) greater than 100 µM. The TGI (SK-MEL-5 melanoma) was greater than 100 µM, the TGI (SK-OV-3 ovarian) was greater than 100 µM and the TGI (SN12C renal) was greater than 100 µM. It also gave a TGI (SNB-19 CNS) greater than 100 µM, a TGI (SNB-75 CNS) greater than 100 µM and a TGI (SNB-78 CNS) greater than 100 µM. It also gave a TGI (SW-620 colon) greater than 100 µM, a TGI (TK-10 renal) greater than 100 µM and a TGI (U251 CNS) greater than 100 µM. It also gave a TGI (UACC-257 melanoma) of 80.5 µM, a TGI (UACC-62 melanoma) greater than 100 µM and a TGI (UO-31 renal) greater than 100 µM. For the same molecule, the TGI (XF 498 CNS) was 90.3 µM.
S=c1sc2c(n1-c1ccccc1)NC=NC2S (stereo unspecified) showed a TGI (786-0 renal) greater than 100 µM, a TGI (A549 NSCLC) greater than 100 µM and a TGI (ACHN renal) greater than 100 µM. For the same molecule, the TGI (CAKI-1 renal) was greater than 100 µM, the TGI (CCRF-CEM leukemia) was greater than 100 µM and the TGI (COLO 205 colon) was greater than 100 µM. It also gave a TGI (DLD-1 colon) greater than 100 µM, a TGI (DMS 114 small cell lung) greater than 100 µM and a TGI (DMS 273 small cell lung) greater than 100 µM. For the same molecule, the TGI (EKVX NSCLC) was greater than 100 µM, the TGI (HCC-2998 colon) was greater than 100 µM and the TGI (HCT-116 colon) was greater than 100 µM. For the same molecule, the TGI (HCT-15 colon) was greater than 100 µM, the TGI (HL-60(TB) leukemia) was greater than 100 µM and the TGI (HOP-18 NSCLC) was 92.1 µM. It also gave a TGI (HOP-62 NSCLC) greater than 100 µM, a TGI (HOP-92 NSCLC) of 71.1 µM and a TGI (HT29 colon) greater than 100 µM. The TGI (IGROV1 ovarian) was greater than 100 µM, the TGI (K-562 leukemia) was greater than 100 µM and the TGI (KM12 colon) was greater than 100 µM. For the same molecule, the TGI (KM20L2 colon) was greater than 100 µM, the TGI (LOX IMVI melanoma) was greater than 100 µM and the TGI (LXFL 529 NSCLC) was greater than 100 µM. It also gave a TGI (M14 melanoma) greater than 100 µM, a TGI (M19-MEL melanoma) greater than 100 µM and a TGI (MALME-3M melanoma) greater than 100 µM. The TGI (MOLT-4 leukemia) was greater than 100 µM, the TGI (NCI-H226 lung) was greater than 100 µM and the TGI (NCI-H23 lung) was greater than 100 µM. For the same molecule, the TGI (NCI-H460 lung) was greater than 100 µM, the TGI (NCI-H522 lung) was greater than 100 µM and the TGI (OVCAR-3 ovarian) was greater than 100 µM. The TGI (OVCAR-4 ovarian) was greater than 100 µM, the TGI (OVCAR-5 ovarian) was greater than 100 µM and the TGI (OVCAR-8 ovarian) was greater than 100 µM. The TGI (RPMI-8226 leukemia) was greater than 100 µM, the TGI (RXF 393 renal) was greater than 100 µM and the TGI (SF-268 CNS) was greater than 100 µM. The TGI (SF-295 CNS) was greater than 100 µM, the TGI (SF-539 CNS) was greater than 100 µM and the TGI (SK-MEL-2 melanoma) was greater than 100 µM. The TGI (SK-MEL-28 melanoma) was greater than 100 µM, the TGI (SK-MEL-5 melanoma) was greater than 100 µM and the TGI (SK-OV-3 ovarian) was greater than 100 µM. For the same molecule, the TGI (SN12C renal) was greater than 100 µM, the TGI (SNB-19 CNS) was greater than 100 µM and the TGI (SNB-75 CNS) was greater than 100 µM. For the same molecule, the TGI (SNB-78 CNS) was greater than 100 µM, the TGI (SR leukemia) was greater than 100 µM and the TGI (SW-620 colon) was greater than 100 µM. It also gave a TGI (TK-10 renal) greater than 100 µM, a TGI (U251 CNS) greater than 100 µM and a TGI (UACC-257 melanoma) greater than 100 µM. The TGI (UACC-62 melanoma) was greater than 100 µM, the TGI (UO-31 renal) was greater than 100 µM and the TGI (XF 498 CNS) was greater than 100 µM.
Work on Cc1cccc(C)c1NC(=O)CCCC(=O)C1/C(=N/NC(=O)CC#N)CCC/C1=N\NC(=O)CC#N (stereo unspecified) yielded a TGI (786-0 renal) greater than 100 µM, a TGI (A498 renal) greater than 100 µM and a TGI (A549 NSCLC) greater than 100 µM. It also gave a TGI (ACHN renal) greater than 100 µM, a TGI (CAKI-1 renal) greater than 100 µM and a TGI (CCRF-CEM leukemia) greater than 100 µM. The TGI (COLO 205 colon) was greater than 100 µM, the TGI (DLD-1 colon) was greater than 100 µM and the TGI (DMS 114 small cell lung) was greater than 100 µM. It also gave a TGI (DMS 273 small cell lung) greater than 100 µM, a TGI (EKVX NSCLC) greater than 100 µM and a TGI (HCC-2998 colon) greater than 100 µM. The TGI (HCT-116 colon) was greater than 100 µM, the TGI (HCT-15 colon) was greater than 100 µM and the TGI (HL-60(TB) leukemia) was greater than 100 µM. It also gave a TGI (HOP-18 NSCLC) greater than 100 µM, a TGI (HOP-62 NSCLC) greater than 100 µM and a TGI (HOP-92 NSCLC) greater than 100 µM. It also gave a TGI (HT29 colon) greater than 100 µM, a TGI (IGROV1 ovarian) greater than 100 µM and a TGI (K-562 leukemia) greater than 100 µM. For the same molecule, the TGI (KM12 colon) was greater than 100 µM, the TGI (KM20L2 colon) was greater than 100 µM and the TGI (LXFL 529 NSCLC) was greater than 100 µM. For the same molecule, the TGI (M14 melanoma) was greater than 100 µM, the TGI (M19-MEL melanoma) was greater than 100 µM and the TGI (MALME-3M melanoma) was greater than 100 µM. For the same molecule, the TGI (MOLT-4 leukemia) was greater than 100 µM, the TGI (NCI-H226 lung) was greater than 100 µM and the TGI (NCI-H23 lung) was greater than 100 µM. For the same molecule, the TGI (NCI-H460 lung) was greater than 100 µM, the TGI (NCI-H522 lung) was greater than 100 µM and the TGI (OVCAR-3 ovarian) was greater than 100 µM. It also gave a TGI (OVCAR-4 ovarian) greater than 100 µM, a TGI (OVCAR-5 ovarian) greater than 100 µM and a TGI (OVCAR-8 ovarian) greater than 100 µM. It also gave a TGI (RPMI-8226 leukemia) greater than 100 µM, a TGI (RXF-631 renal) greater than 100 µM and a TGI (SF-268 CNS) greater than 100 µM. For the same molecule, the TGI (SF-295 CNS) was greater than 100 µM, the TGI (SF-539 CNS) was greater than 100 µM and the TGI (SK-MEL-2 melanoma) was greater than 100 µM. The TGI (SK-MEL-28 melanoma) was greater than 100 µM, the TGI (SK-MEL-5 melanoma) was greater than 100 µM and the TGI (SK-OV-3 ovarian) was greater than 100 µM. It also gave a TGI (SN12C renal) greater than 100 µM, a TGI (SNB-19 CNS) greater than 100 µM and a TGI (SNB-75 CNS) greater than 100 µM. The TGI (SNB-78 CNS) was greater than 100 µM, the TGI (SR leukemia) was greater than 100 µM and the TGI (SW-620 colon) was greater than 100 µM. For the same molecule, the TGI (TK-10 renal) was greater than 100 µM, the TGI (U251 CNS) was greater than 100 µM and the TGI (UACC-257 melanoma) was greater than 100 µM. The TGI (UACC-62 melanoma) was greater than 100 µM, the TGI (UO-31 renal) was greater than 100 µM and the TGI (XF 498 CNS) was greater than 100 µM.
